Experimental findings from the NIST ThermoML archive (doi:10.1016/j.jct.2017.10.011) are described below.

The conditions of series [1]: Crystal 2; DSC.
Series [2] in a line: Molar enthalpy of transition or fusion. Conditions: Crystal 2; DSC.

Numbers after ± are expanded uncertainties.

Take `O=C1COC(=O)CO1` [1,4-dioxane-2,5-dione]: the Triple point temperature in series [1] is recorded as 317.51 ± 2.1 K. For the same compound, the “Molar enthalpy of transition or fusion” value in series [2] is 0.422 ± 0.0502 kcal/mol.
